Consider 14 compounds from PubChem BioAssay (NCI).

Common to all, as to assay: NCI-60 cell line screen, 48 h
The test system of experiment [1] is PC-3 prostate.
Experiment [2] concerns HOP-62 NSCLC.
Experiment [3] relates to COLO 205 colon.
Experiment [4] relates to MDA-MB-231 breast.
Experiment [5] has as its system NCI-H522 lung.
Experiment [6] relates to LOX IMVI melanoma.
Experiment [7] deals with SF-295 CNS.
Experiment [8] relates to RXF 393 renal.
The subject of experiment [9] is MOLT-4 leukemia.
The test system of experiment [10] is SNB-75 CNS.

The structures appear in SMILES notation.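 Protocol summary: plate cells (96-well), add compound at 5 concentrations, incubate 48 h, interpolate endpoints linearly. TGI marks complete inhibition of growth.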

In the case of `CCO/C(O)=C(/C(=N)N1CCCC1)C(=O)Nc1cccc(C(F)(F)F)c1`, the TGI in experiment [1], in experiment [2], in experiment [3], in experiment [4], in [5] and in experiment [6] was above 100 µM each time. For the same compound, the TGI is above 100 µM in experiment [7], 53.6 µM in experiment [8], above 100 µM in experiment [9] and 85.1 µM in experiment [10].

Consider `O=S1(=O)c2ccccc2NC(=S)CC1c1ccccc1` (stereo not drawn), for which the TGI in [1], in [2], in experiment [3], in experiment [4], in experiment [5] and in experiment [6] was above 100 µM each time. Moreover, the TGI in experiment [7] is 79.8 µM; in experiment [8], above 100 µM; in [9], above 100 µM; in experiment [10] it was above 100 µM.

With `NNc1nncn1N`, the TGI in [1], in experiment [2], in experiment [3], in experiment [4], in [5] and in experiment [6] was above 100 µM in each case. Besides, the TGI in [7], in [8], in experiment [9] and in experiment [10] was above 100 µM each time.

For `CCc1c(C)c(C#N)c(=S)n(C2OC(CO)C(O)C(O)C2O)c1C` (stereo not drawn), the TGI in experiment [1], in [2], in [3], in experiment [4], in [5] and in experiment [6] was above 100 µM in each case. For the same compound, the TGI in experiment [7], in [8], in experiment [9] and in experiment [10] was above 100 µM throughout.

As for `CCc1ccc2c(c1)CC1(C2)Cc2cc3c(cc2C1)C(=O)CC3` (stereo not drawn), the TGI in experiment [1] stood at 64.1 µM; in experiment [2], 78.5 µM; in [3] it was 17.5 µM; in [4], 87.7 µM; in experiment [5] it was 57.3 µM; in experiment [6] it was 37 µM. For the same compound, the TGI is 65.3 µM in [7] and above 100 µM in experiment [8].

In the case of `O=C(NCc1ccc(Cl)cc1)c1cc2sccc2nc1C(F)(F)F`, the TGI in experiment [1] was above 100 µM; in [2] it was 56.2 µM; in experiment [3] it was above 100 µM; in experiment [4], above 100 µM; in [5], 95.2 µM; in [7] it was above 100 µM. The TGI in experiment [8] was 67.4 µM; in experiment [9] it was above 100 µM.

As for `COc1cc(C2S/C(=C/c3ccccc3)C(=O)N2c2ccc(Cl)c(Cl)c2)cc(OC)c1OC` (stereo not drawn), the TGI in experiment [1] is above 100 µM; in experiment [2], above 100 µM; in [3] it was above 100 µM; in [4], above 100 µM; in experiment [5], 51.4 µM; in [6], above 100 µM. Besides, the TGI in experiment [7], in [8] and in [9] was above 100 µM in each case.

`O=C1c2cccc3cccc(c23)C(=O)N1CCCNOCCONCCCN1C(=O)c2cccc3cccc(c23)C1=O`: the TGI in [1], in [2], in experiment [3], in experiment [4], in experiment [6] and in experiment [7] was above 100 µM in each case. The TGI in experiment [8], in experiment [9] and in experiment [10] was above 100 µM in each case.

In the case of `c1ccc2c(c1)nc1n2CCSC1`, the TGI in [1], in [2], in experiment [3], in experiment [4], in experiment [6] and in experiment [7] was above 100 µM throughout. Moreover, the TGI in experiment [8], in experiment [9] and in [10] was above 100 µM in each case.

As for `O=C1C(Br)=C(c2ccccc2)S(=O)c2ccccc21` (stereo not drawn), the TGI worked out at 21.2 µM in experiment [1]; 5.68 µM in experiment [2]; 3.95 µM in experiment [3]; 29.2 µM in experiment [4]; 3.35 µM in experiment [5]; 28.2 µM in experiment [6]. Moreover, the TGI in experiment [7] turned out to be 34.6 µM; in [8], 24.8 µM; in [10], 31.1 µM.

Regarding `COc1c2cc(C(C)(C)C)cc1Cc1cccc(c1O)Cc1cc(C(C)(C)C)cc(c1OC)Cc1cccc(c1O)Cc1cc(C(C)(C)C)cc(c1OC)Cc1cccc(c1O)C2`, the TGI in [1], in experiment [2], in experiment [3], in experiment [4], in experiment [5] and in [7] was above 100 µM throughout. Moreover, the TGI in experiment [8], in [9] and in [10] was above 100 µM throughout.

Take `CN(C)CCNc1ncnc2nc(-c3ccc4ccccc4c3)[nH]c12`: the TGI in [1], in [2], in experiment [3], in experiment [4], in experiment [5] and in experiment [6] was above 100 µM each time. Besides, the TGI in experiment [7], in experiment [8] and in experiment [9] was above 100 µM throughout.

As for `Cc1ccc(C(=O)/C(C#N)=C/Nc2c(C)n(C)n(-c3ccccc3)c2=O)cc1`, the TGI in experiment [1], in [2], in experiment [3], in experiment [4], in [5] and in experiment [6] was above 100 µM in each case. Also, the TGI in experiment [7], in [8] and in [9] was above 100 µM throughout.

For the compound `Cc1ccc(N=Nc2c(C)c(C#N)c(=S)n(C3OC(CO)C(O)C(O)C3O)c2-c2ccccc2)cc1` (stereo not drawn), the TGI in experiment [1] was 55.6 µM; in experiment [2], 54.2 µM; in experiment [3] it was 57.4 µM; in experiment [4], above 100 µM; in [6], 31.2 µM; in [7] it was 69.5 µM. Moreover, the TGI came to 50.6 µM in experiment [8], 38.9 µM in [9] and 55.2 µM in experiment [10].
